Structures are written as SMILES.

Experimental findings from US9651864B2, “Negative resist composition, method for producing relief pattern using the same, and electronic component using the same” (DAI NIPPON PRINTING CO., LTD., priority 2010, dated 2017) are described below.

Common to all, as to format: physicochemical
Series [1] in a line: Evaluation of solvent solubility of phenolic compound in typical resist solvents. The note with it: (D)-3: Cyclopentanone; 1 or 5 wt % at 23° C.
A short description of series [2]: Glass transition temperature (Tg) by differential thermal analyzer DSC-60. Particulars: second heating to 200° C. at 10° C./min; deemed 200° C. or more when no inflection point until 200° C. The protocol: Glass transition temperature (Tg): an intersection point of two tangents to smooth curving lines before and after the inflection temperature point of a DTA curve, the DTA curve being obtained when a material for forming a pattern of about 4 mg was heated to 200° C. at a rate of 10° C./min, cooled to room temperature and then heated to 200° C. at a rate of 10° C./min again, with a differential thermal analyzer (DSC-60 manufactured by Shimadzu Corporation).
Tg was deemed as 200° C. or more when no inflection point was found on the DTA curve until 200° C., which point corresponds to glass transition temperature.

The nature of series [3]: Evaluation of solvent solubility of phenolic compound in typical resist solvents. Also on record: key to Solubility in (D)-2: ⊚: The material for forming a pattern was dissolved at a concentration of 5 wt % at 23° C.; ◯: The material for forming a pattern was dissolved at a concentration of 1 wt % at 23° C.; X: The material for forming a pattern was insoluble. The note with it: for Solubility in (D)-1: (D)-1: Propylene glycol monomethylether; for Solubility in (D)-1 / Solubility in (D)-2: 1 or 5 wt % at 23° C.; for Solubility in (D)-2: (D)-2: Propylene glycol monomethyl ether acetate. The protocol:
The phenolic compounds (A-01 to A-15) obtained in Synthesis Examples 1 to 15 and the comparative phenolic compounds (CA-01 and CA-02) were added to the following typical resist solvents so as to have a concentration of 1 or 5 wt % at 23° C., followed by stirring:
(D)-1: Propylene glycol monomethylether
(D)-2: Propylene glycol monomethyl ether acetate
The thus-obtained mixtures were evaluated based on the following evaluation criterion.
? : The material for forming a pattern was dissolved at a concentration of 5 wt % at 23° C.,
∘: The material for forming a pattern was dissolved at a concentration of 1 wt % at 23° C.
x: The material for forming a pattern was insoluble.

Take `CC(C)(c1cc(CO)c(O)c(CO)c1)c1cc(CO)c(O)c(CO)c1` [CA-01, 2,2-bis(4-hydroxy-3,5-dihydroxymethylphenyl)propane, reference compound]: in series [1], the “Solubility in (D)-3” value is listed as “◯ (The material for forming a pattern was dissolved at a concentration of 1 wt % at 23° C.)”. The “Glass Transition Temperature” value in series [2] was determined as 27 °C. In series [3], the “Solubility in (D)-1” value is “◯ (The material for forming a pattern was dissolved at a concentration of 1 wt % at 23° C.)” and the “Solubility in (D)-2” value is “X”. Further, the “solubility in resist solvents (in words)” value in series [3] (summary of Table 3) was “dissolve in only specific solvents”.
`CC(C)(C1CCC(c2cc(CO)c(O)c(CO)c2)(c2cc(CO)c(O)c(CO)c2)CC1)C1CCC(c2cc(CO)c(O)c(CO)c2)(c2cc(CO)c(O)c(CO)c2)CC1` [Compound A-01]: the “Solubility in (D)-3” value in series [1] is listed as “⊚ (The material for forming a pattern was dissolved at a concentration of 5 wt % at 23° C.)”. Also, the “Glass Transition Temperature” value in series [2] amounted to 63 °C. Besides, in series [3], the “Solubility in (D)-1” value is “◯ (The material for forming a pattern was dissolved at a concentration of 1 wt % at 23° C.)”, the “Solubility in (D)-2” value is “◯ (The material for forming a pattern was dissolved at a concentration of 1 wt % at 23° C.)” and the “solubility in propylene glycol monomethyl ether” value was 2%.
In the case of `Cc1cc(C(c2cc(C)c(O)c(CO)c2)C(c2cc(C)c(O)c(CO)c2)c2cc(C)c(O)c(CO)c2)cc(CO)c1O` [Compound A-02], the “Solubility in (D)-3” value in series [1] is “⊚ (The material for forming a pattern was dissolved at a concentration of 5 wt % at 23° C.)”. Moreover, the “Glass Transition Temperature” value in series [2] worked out at 200 °C or. In addition, in series [3], the “Solubility in (D)-1” value was “⊚ (The material for forming a pattern was dissolved at a concentration of 5 wt % at 23° C.)”, the “Solubility in (D)-2” value was “◯ (The material for forming a pattern was dissolved at a concentration of 1 wt % at 23° C.)” and the “solubility in propylene glycol monomethyl ether” value is recorded as 5%.
`OCc1cc(C2(c3cc(CO)c(O)c(CO)c3)c3ccccc3-c3ccccc32)cc(CO)c1O` [Compound A-04]: in series [1], the “Solubility in (D)-3” value was “⊚ (The material for forming a pattern was dissolved at a concentration of 5 wt % at 23° C.)”. Moreover, in series [2], the “Glass Transition Temperature” value worked out at 62 °C. For the same compound, in series [3], the “Solubility in (D)-1” value is “⊚ (The material for forming a pattern was dissolved at a concentration of 5 wt % at 23° C.)” and the “Solubility in (D)-2” value is “⊚ (The material for forming a pattern was dissolved at a concentration of 5 wt % at 23° C.)”.
Consider `CC(C)(c1cccc(C(C)(C)c2cc(CO)c(O)c(CO)c2)c1)c1cc(CO)c(O)c(CO)c1` [Compound A-05], for which the “Solubility in (D)-3” value in series [1] is “⊚ (The material for forming a pattern was dissolved at a concentration of 5 wt % at 23° C.)”. Also, the “Glass Transition Temperature” value in series [2] is 135 °C. Also, in series [3], the “Solubility in (D)-1” value is on record as “⊚ (The material for forming a pattern was dissolved at a concentration of 5 wt % at 23° C.)” and the “Solubility in (D)-2” value is given as “◯ (The material for forming a pattern was dissolved at a concentration of 1 wt % at 23° C.)”.
On to `OCc1cc(C(c2cc(CO)c(O)c(C3CCCCC3)c2)C(c2cc(CO)c(O)c(C3CCCCC3)c2)c2cc(CO)c(O)c(C3CCCCC3)c2)cc(C2CCCCC2)c1O` [Compound A-09], for which, in series [1], the “Solubility in (D)-3” value is listed as “⊚ (The material for forming a pattern was dissolved at a concentration of 5 wt % at 23° C.)”. In addition, the “Glass Transition Temperature” value in series [2] is 200 °C or. Also, in series [3], the “Solubility in (D)-1” value was “⊚ (The material for forming a pattern was dissolved at a concentration of 5 wt % at 23° C.)” and the “Solubility in (D)-2” value is listed as “⊚ (The material for forming a pattern was dissolved at a concentration of 5 wt % at 23° C.)”.
For the compound `COCc1cc(C(c2cc(C)c(O)c(COC)c2)C(c2cc(C)c(O)c(COC)c2)c2cc(C)c(O)c(COC)c2)cc(C)c1O` [Compound A-12], the “Solubility in (D)-3” value in series [1] is recorded as “⊚ (The material for forming a pattern was dissolved at a concentration of 5 wt % at 23° C.)”. Further, in series [2], the “Glass Transition Temperature” value turned out to be 200 °C or. Besides, in series [3], the “Solubility in (D)-1” value is “⊚ (The material for forming a pattern was dissolved at a concentration of 5 wt % at 23° C.)” and the “Solubility in (D)-2” value is on record as “⊚ (The material for forming a pattern was dissolved at a concentration of 5 wt % at 23° C.)”.
Regarding `Cc1cc(C2(c3cc(C)c(O)c(CO)c3)CCC(C(C)(C)C3CCC(c4cc(C)c(O)c(CO)c4)(c4cc(C)c(O)c(CO)c4)CC3)CC2)cc(CO)c1O` [Compound A-13], the “Solubility in (D)-3” value in series [1] was “⊚ (The material for forming a pattern was dissolved at a concentration of 5 wt % at 23° C.)”. Also, the “Glass Transition Temperature” value in series [2] was 200 °C or. In addition, in series [3], the “Solubility in (D)-1” value was “⊚ (The material for forming a pattern was dissolved at a concentration of 5 wt % at 23° C.)” and the “Solubility in (D)-2” value is recorded as “⊚ (The material for forming a pattern was dissolved at a concentration of 5 wt % at 23° C.)”.
As to `c1cc(C(c2ccc(OCC3CO3)cc2)C(c2ccc(OCC3CO3)cc2)c2ccc(OCC3CO3)cc2)ccc1OCC1CO1` (stereo not drawn) [TEP-G, reference compound], in series [2], the “Glass Transition Temperature” value turned out to be 47 °C.
